# Source: US20160256433A1, “Formulations Containing Amorphous Dapagliflozin” (SANDOZ AG, priority 2013, published 2016)
# Read-outs that look alike come from different tables or passages of the source.
# Experiments:
# [1] = for water absorbed: at 80% relative air humidity (RH)
# [2] = for pH of suspension after 24 hours of testing: 37° C.
# [3] = physchem; conditions: for solubility at 24 h: thermodynamic from solid
# [4] = medium of pH 1.2, 37 °C, pH 1.2, simulated gastric fluid
# [5] = medium of pH 6.8, 37 °C, pH 6.8, aqueous buffer
water absorbed [1],pH of suspension after 24 hours of testing ([2]; medium pH 1.2),pH of suspension after 24 hours of testing ([2]; medium pH 6.8),pH of suspension after 24 hours of testing ([2]; medium water),"solubility at 24 h [3, 4]","solubility at 24 h [3, 5]","solubility at 24 h ([3]; water, 37 °C)",SMILES,further results
around 0.8%,1.3,6.8,3.2,1700 µg/mL,1700 µg/mL,1800 µg/mL,CCOc1ccc(Cc2cc([C@@H]3O[C@H](CO)[C@@H](O)[C@H](O)[C@H]3O)ccc2Cl)cc1,
around 6%,1.2,6.7,7.4,1200 µg/mL,1200 µg/mL,1200 µg/mL,"CCOc1ccc(Cc2cc([C@@H]3OC(CO)[C@@H](O)C(O)C3O)ccc2Cl)cc1 (stereo partly drawn) [amorphous dapagliflozine, (2S,3R,4R,5S,6R)-2-[4-chloro-3-(4-ethoxybenzyl)phenyl]-6-(hydroxymethyl)tetrahydro-2H-pyran-3,4,5-triole]","water irreversibly absorbed ([1]; during the first sorption/desorption cycle): around 3%; Desciptive term (solubility) ([2]; medium pH 1.2): Slightly soluble; Desciptive term (solubility) ([2]; medium pH 3.0): Slightly soluble; pH of suspension after 24 hours of testing ([2]; medium pH 3.0): 2.9; Desciptive term (solubility) ([2]; medium pH 4.5): Slightly soluble; pH of suspension after 24 hours of testing ([2]; medium pH 4.5): 4.5; Desciptive term (solubility) ([2]; medium pH 6.8): Slightly soluble; Desciptive term (solubility) ([2]; medium pH 7.4): Very slightly soluble; pH of suspension after 24 hours of testing ([2]; medium pH 7.4): 7.2; Desciptive term (solubility) ([2]; medium water): Slightly soluble; solubility at 24 h ([3]; medium of pH 3.0, 37 °C, pH 3, aqueous buffer): 1100 µg/mL; solubility at 24 h ([3]; medium of pH 4.5, 37 °C, pH 4.5, aqueous buffer): 1200 µg/mL; solubility at 24 h ([3]; medium of pH 7.4, 37 °C, pH 7.4, aqueous buffer): 700 µg/mL; solubility ([3]; water): ~1000 µg/mL"
